The test addresses T1, integrin α4β7 (Mus musculus, UniProt P26011+Q00651).
T1 construct: host or cells: TK-1 mouse T-cell lymphoma cells
T1 sequence (Q00651 41-1039): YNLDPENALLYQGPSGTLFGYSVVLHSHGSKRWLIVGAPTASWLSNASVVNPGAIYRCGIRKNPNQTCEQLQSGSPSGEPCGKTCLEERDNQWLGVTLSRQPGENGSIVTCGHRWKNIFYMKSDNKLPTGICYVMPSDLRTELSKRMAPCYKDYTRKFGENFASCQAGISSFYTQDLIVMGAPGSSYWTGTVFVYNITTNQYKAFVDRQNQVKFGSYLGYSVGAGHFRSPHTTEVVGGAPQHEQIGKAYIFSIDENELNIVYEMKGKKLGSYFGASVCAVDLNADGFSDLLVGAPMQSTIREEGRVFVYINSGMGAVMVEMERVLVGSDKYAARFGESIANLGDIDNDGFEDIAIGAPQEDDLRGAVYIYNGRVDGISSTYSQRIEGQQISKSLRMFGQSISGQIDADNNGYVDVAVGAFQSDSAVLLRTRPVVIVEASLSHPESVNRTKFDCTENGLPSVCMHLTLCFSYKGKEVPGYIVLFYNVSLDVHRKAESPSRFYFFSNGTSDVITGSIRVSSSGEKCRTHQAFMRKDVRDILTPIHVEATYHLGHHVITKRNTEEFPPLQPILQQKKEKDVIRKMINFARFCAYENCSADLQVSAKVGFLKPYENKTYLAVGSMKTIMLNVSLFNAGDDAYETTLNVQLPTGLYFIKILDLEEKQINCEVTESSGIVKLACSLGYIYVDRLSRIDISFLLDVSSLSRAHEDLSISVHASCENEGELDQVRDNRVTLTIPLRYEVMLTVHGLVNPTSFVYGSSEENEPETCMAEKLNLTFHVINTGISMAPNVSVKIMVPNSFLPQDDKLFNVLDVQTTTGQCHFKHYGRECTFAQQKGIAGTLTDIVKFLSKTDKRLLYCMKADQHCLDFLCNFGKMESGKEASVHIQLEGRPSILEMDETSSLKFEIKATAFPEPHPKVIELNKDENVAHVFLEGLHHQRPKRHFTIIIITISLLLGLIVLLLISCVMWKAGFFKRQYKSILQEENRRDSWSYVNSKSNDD
T1 sequence (P26011 20-806): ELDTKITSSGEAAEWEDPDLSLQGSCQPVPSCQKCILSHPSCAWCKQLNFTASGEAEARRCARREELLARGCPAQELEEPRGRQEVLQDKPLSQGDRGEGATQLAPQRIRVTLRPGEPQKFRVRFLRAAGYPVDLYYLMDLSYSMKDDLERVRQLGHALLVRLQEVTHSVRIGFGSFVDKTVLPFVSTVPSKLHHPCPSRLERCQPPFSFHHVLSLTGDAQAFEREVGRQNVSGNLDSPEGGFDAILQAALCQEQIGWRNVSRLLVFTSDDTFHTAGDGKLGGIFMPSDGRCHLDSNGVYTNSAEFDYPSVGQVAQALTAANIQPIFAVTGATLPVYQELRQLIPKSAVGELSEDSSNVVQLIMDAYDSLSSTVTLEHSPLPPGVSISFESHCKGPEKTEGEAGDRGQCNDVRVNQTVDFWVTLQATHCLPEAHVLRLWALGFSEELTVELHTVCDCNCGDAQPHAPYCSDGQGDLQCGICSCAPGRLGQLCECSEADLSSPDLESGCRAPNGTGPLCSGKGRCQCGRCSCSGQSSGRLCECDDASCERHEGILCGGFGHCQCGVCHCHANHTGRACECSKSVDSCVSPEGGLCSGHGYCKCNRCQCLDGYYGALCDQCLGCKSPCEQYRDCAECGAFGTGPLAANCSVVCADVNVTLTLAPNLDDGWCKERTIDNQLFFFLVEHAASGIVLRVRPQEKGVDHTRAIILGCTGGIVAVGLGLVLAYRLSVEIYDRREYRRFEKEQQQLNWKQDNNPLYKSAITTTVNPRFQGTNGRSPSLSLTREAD
The test is described as follows: Integrin α4β7-MAdCAM mouse cell adhesion assay (TK-1 cells). The format is cell-based. Conditions: for IC50: TK-1 cells, read-out: IC50 in mouse α4β7-containing cell adhesion. How it is done:
TK-1 mouse T-cells lymphoma cell lines (ATCC CRL2396) were cultured in RPMI 1640 medium (HyClone SH30027.1) supplemented with 10% FBS (Seradigm) and 1% Penicillin-Streptomycin. A 96-well plate (Costar, 3603) was coated with 100 μl/well of recombinant mouse MAdCAM-1 Fc Chimera (R&D Systems, 993-MC-050) solution at 0.25 μg/ml in coating buffer (50 mM sodium carbonate, pH 9.6). The plate was incubated overnight at 4° C. and washed twice with 150 μl per well wash buffer (0.05% Tween 20 in PBS), blocked with 250 μl per well blocking buffer (1% non-fat dry milk in PBS), and incubated for 2 hours at room temperature. TK-1 cells were resuspended at 10 million cells/ml in PBS containing […] and incubated at 37° C. for 30 min in a 50 ml tube. […] The plate was emptied by inverting and blotting on paper towels and washed manually twice with PBS. 100 μl PBS was then added to each well. The fluorescence was read (Ex495/Em515) using a plate reader (Tecan Infinite 1000). To calculate the dose response, the fluorescence value of control wells not containing cells was subtracted from each test well.

Numbered stars: 1 amine (or outer) side, 2 acyl side, 3 side chain; on linkers, the order of the positions; unused ones are H or OH. Square brackets hold non-standard residues; d marks the D form. Peptide text beside a SMILES is read from it. X1 = O=C(c1ccc(-c2ccc(N3CCNCC3)cc2)c(CN[*:1])c1)[*:2]

For orientation: IC50 means the concentration needed to halve the response being measured.

Regarding `CC(C)C[C@@H]1NC(=O)c2ccc(-c3ccc(N4CCN(Cc5cccc(CN6CCN(c7ccc(-c8ccc9cc8CNC(=O)[C@@H]8CCCN8C(=O)[C@H](C)NC(=O)[C@H]([C@@H](C)O)NC(=O)[C@H](CC(=O)O)NC(=O)[C@H](CC(C)C)NC9=O)cc7)CC6)c5)CC4)cc3)c(c2)CNC(=O)[C@@H]2CCCN2C(=O)[C@H](C)NC(=O)[C@H]([C@@H](C)O)NC(=O)[C@H](CC(=O)O)NC1=O` [Compound 18], the IC50 is roughly 68 nM.
Regarding `CC(C)C[C@@H]1NC(=O)c2ccc(-c3ccc(N4CCNCC4)cc3)c(c2)CNC(=O)[C@@H]2CCCN2C(=O)[C@H](C)NC(=O)[C@H]([C@@H](C)O)NC(=O)[C@H](CC(=O)O)NC1=O` [Compound 8] (cyclo(P[X1]LDTA)), under “TK-1 versus RPMI8866, weaker in mouse”, the “fold difference in IC50 between mouse α4β7-containing and human α4β7-containing cell adhesion” value is listed as roughly 10 fold.
`CC(C)C[C@@H]1NC(=O)c2ccc(-c3ccc(N4CCN(C(=O)COCC(=O)N5CCN(c6ccc(-c7ccc8cc7CNC(=O)[C@@H]7CCCN7C(=O)[C@H](C)NC(=O)[C@H]([C@@H](C)O)NC(=O)[C@H](CC(=O)O)NC(=O)[C@H](CC(C)C)NC8=O)cc6)CC5)CC4)cc3)c(c2)CNC(=O)[C@@H]2CCCN2C(=O)[C@H](C)NC(=O)[C@H]([C@@H](C)O)NC(=O)[C@H](CC(=O)O)NC1=O` [Compound 17]: the IC50 is roughly 97 nM.

Values taken from patent US11286281B2, “Homodetic cyclic peptides targeting alpha-4-beta-7 integrin” (priority 2017, dated 2022).
